We go through three compounds from PMC13534584, “ATP13A4 gates extracellular polyamine levels to control excitatory synaptogenesis” (Nature Communications, 2026).

Assay in all cases: ADP-Glo Max ATPase assay, dose-response
Type in all cases: biochemical
Common to all, as to details: 5 mM ATP, 11 mM MgCl2, 100 mM KCl, MOPS-KOH pH 7, 37 °C, 0.001% DDM

For assay [1], the target named is T1, hATP13A4 (Homo sapiens, UniProt Q4VNC1, A356V).
T1 construct: gene ATP13A4; solubilised in DDM
T1 sequence (Q4VNC1 1-1196 A356V): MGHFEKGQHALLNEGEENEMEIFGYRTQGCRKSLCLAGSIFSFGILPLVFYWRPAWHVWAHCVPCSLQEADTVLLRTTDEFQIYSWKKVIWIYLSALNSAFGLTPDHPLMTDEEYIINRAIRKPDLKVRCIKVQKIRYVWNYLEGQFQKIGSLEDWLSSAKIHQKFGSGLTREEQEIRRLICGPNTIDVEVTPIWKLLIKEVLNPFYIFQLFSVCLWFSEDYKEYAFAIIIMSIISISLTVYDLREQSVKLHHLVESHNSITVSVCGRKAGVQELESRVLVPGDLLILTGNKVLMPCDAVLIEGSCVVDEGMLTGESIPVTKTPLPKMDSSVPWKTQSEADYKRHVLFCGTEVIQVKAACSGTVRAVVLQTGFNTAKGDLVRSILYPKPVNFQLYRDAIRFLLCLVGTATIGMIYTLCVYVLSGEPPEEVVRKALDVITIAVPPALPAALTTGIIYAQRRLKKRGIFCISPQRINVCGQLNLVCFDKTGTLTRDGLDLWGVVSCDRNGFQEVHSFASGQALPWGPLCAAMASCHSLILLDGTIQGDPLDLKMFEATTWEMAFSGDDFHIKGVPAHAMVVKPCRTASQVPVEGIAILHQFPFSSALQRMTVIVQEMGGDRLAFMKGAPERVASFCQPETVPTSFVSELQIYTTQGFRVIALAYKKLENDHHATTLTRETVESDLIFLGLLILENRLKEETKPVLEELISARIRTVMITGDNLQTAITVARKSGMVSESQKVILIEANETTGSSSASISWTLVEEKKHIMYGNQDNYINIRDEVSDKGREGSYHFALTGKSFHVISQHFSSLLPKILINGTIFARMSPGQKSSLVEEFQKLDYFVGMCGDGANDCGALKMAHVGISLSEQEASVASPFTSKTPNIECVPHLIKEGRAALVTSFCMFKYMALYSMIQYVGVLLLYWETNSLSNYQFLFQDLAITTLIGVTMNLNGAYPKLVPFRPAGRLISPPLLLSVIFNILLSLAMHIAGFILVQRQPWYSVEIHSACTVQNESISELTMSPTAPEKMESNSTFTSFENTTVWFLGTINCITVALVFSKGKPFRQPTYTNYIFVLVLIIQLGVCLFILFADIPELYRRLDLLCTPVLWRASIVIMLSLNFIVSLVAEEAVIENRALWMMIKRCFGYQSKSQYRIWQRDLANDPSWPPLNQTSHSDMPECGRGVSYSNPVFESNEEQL

Assay [2] addresses T2, hATP13A4 (Homo sapiens, UniProt Q4VNC1, E276K).
T2 construct: gene ATP13A4; solubilised in DDM
T2 sequence (Q4VNC1 1-1196 E276K): T1 sequence (Q4VNC1 1-1196 A356V) with E276K, V356A

Assay [3] deals with T3, hATP13A4 (Homo sapiens, UniProt Q4VNC1).
T3 construct: gene ATP13A4; solubilised in DDM
T3 sequence (Q4VNC1 1-1196): T1 sequence (Q4VNC1 1-1196 A356V) with V356A

Numbering of substitutions follows the chain as printed.

For `NCCCCNCCCN` [SPD, spermidine], the “spermidine-dependent ATPase activity” value in assay [1] is “spermidine-dependent ATPase activity of purified, solubilized ATP13A4 (WT and disease-associated variants p.E276K, p.A356V”; in assay [2] it was “p.E276K reduces spermidine-stimulated ATPase activity to a similar extent as p.A356V and p.E646D”. For the same compound, in assay [3], the ATPase stimulation result was “each stimulated ATPase activity of purified wild-type (WT) hATP13A4 in a concentration-dependent manner”.
`NCCCNCCCCNCCCN` [SPM, spermine]: in assay [3], the ATPase stimulation entry is “ATP13A4 exhibits the highest apparent affinity for spermine and spermidine”.
The same measure, in the same setting: the value for `NCCCCCN` [cadaverine] was “Putrescine, spermidine, spermine, cadaverine, and acetylated polyamine derivatives each stimulated ATPase activity”.
